Reference: US7947668B2, “Aminoalkyl sterol compounds having an anti-tumoral and neuroprotective activity” (Institut National de la Sante et de la Recherche Medicale, priority 2002, dated 2011)

Experiments:
[1] = tested on: TS/A tumors implanted onto BALB/c mice; assay: Growth tests on tumors implanted onto BALB/c mice; type: in vivo; details: for tumor growth relative to the control mice: intradermal in the region of the tumor
Procedure: The tumors are implanted in the following manner: 1×10^6 TS/A cells are inoculated by intradermal injection into the right side of the abdomen of 5-6-week-old BALB/c mice (Janvier breeding station, Le Genest Saint Isle).
The test molecule is the one corresponding to example 9; it is injected on the third day intradermally in the region of the tumor; the result is shown in FIG. 7.
The same experiment as that described above was repeated, changing the area of injection of the molecule corresponding to example 9; the injection is performed on the third day after implantation of the tumor, intradermally into the controlateral position relative to said implantation. […] This illustrates the efficacy of the treatment for an administration of the test compound remote from the tumor. The results obtained are represented by the curves in FIG. 17.

[2] = tested on: U937 cells; assay: Induction of vacuole production in the U937 tumoral cell line; type: cell-based, human; details: 10 nM, 24 hours
Procedure: U937 cells were treated with 10 nM of the compound according to example 9 for 24 hours. The treatment methods are those described in detail in example 55.

[3] = tested on: A549 cells; assay: Induction of vacuole production in the A549 tumoral cell line; type: cell-based, human
Procedure: A549 cells were treated with 100 nM of compound according to example 9, for 12 hours.
The A549 cells were obtained from the American Tissue Culture Collection (ATCC); they were inoculated at a density of 50 000 cells per well into 12-well plates and were cultured in RPMI medium supplemented with 5% fetal calf serum. To perform the treatment with the compound according to the invention, the cells are incubated with said compound (or with a control product) for 48 hours. The cells are then observed by phase-contrast microscopy every four hours to monitor the formation of vacuoles, and are then fixed with 0.4% paraformaldehyde solution in phosphate-buffered saline (PBS) at pH 7.4.
To obtain photograph D indicated above, the process was performed as follows: after treating the cells, the culture medium is removed and the cells are washed with PBS at pH 7.4. The cells are incubated for 10 minutes with 1 μM solutions of monodansyl cadaverine (MDC). They are then rinsed thoroughly with PBS solution at 4° C. One drop of “Vectashield” solution (Vector Laboratories, CA) is added before mounting between microscope slide and cover slip: the cells are then observed rapidly under the microscope and photographed.
The A549 cells treated as indicated above with the compound according to example 9 were also examined by electron microscopy. To examine these A549 cells by electron microscopy, they are fixed using a solution of PBS containing 3% glutaraldehyde, taken up in resin (EPON) and finally cut into thin slices using an ultra-microtome. These slices are then placed on 200-mesh copper grilles and examined by electron microscopy. […] In this FIG. 11, the letters used have the following meanings: N=nucleus; C=cytoplasm; M=mitochondria; Vi=intracytoplasmic vesicles; Ve=extracellular vesicles; MLB=multilamellar body.

[4] = tested on: T lymphocytes originating from BALB/c mouse spleens; assay: Proliferation of T lymphocytes (tritiated thymidine incorporation); type: cell-based; details: C57BL/6 dendritic cells in contact with BALB/c T lymphocytes
Procedure: C57BL/6 mouse monocytes were collected as indicated in example 48.1. The dendritic cells were obtained as indicated in example 9. After transformation into CDs with the test compound, the cells are treated with an antimitotic agent (mitomycin C at 0.0006 mg/ml) and incubated for 30 minutes at 37° C., in order to block DNA synthesis in the CDs. After this treatment, the cells are washed twice with RPMI 1640 medium supplemented with 10% fetal calf serum.
BALB/c mouse spleens were also collected and treated as described for the preparation of the C57BL/6 mouse monocytes. The nonadherent cells, which contain the T lymphocytes, are recovered and added to the C57BL/6 mouse dendritic cells. On the fourth day of contact of the cells, tritiated thymidine is added. After incubation for 18 hours, the cells are lyzed with absolute alcohol. The precipitate is suspended in water and then filtered through a cellulose filter. The incorporation of thymidine is measured by scintillation counting (Packard Instrument, Meriden Conn., USA).
The adherent monocytes originating from mouse spleens obtained according to example 14.1 were treated with the abovementioned compound at variable doses. […] The lymphocyte proliferation is measured by measuring the incorporation of tritiated thymidine into the DNA.

[5] = tested on: C57BL/6 mouse spleen monocytes; assay: Dendritogenesis on C57BL/6 mouse spleen monocytes; type: cell-based; details: dose of 1 nM, 36 hours after the start of action
Procedure: 1) On C57BL/6 Mouse Spleen Monocytes
5-week-old mice are sacrificed by cervical dislocation. They are then dissected. The spleens are removed under sterile conditions and then placed in a cold solution (4° C.) containing serum-free culture medium supplemented with antibiotics (streptomycin and penicillin). The spleens are ground in a sterile fume cupboard and then filtered through a 100 μm filter. The eluate is recovered and then centrifuged at 1000 rpm for 5 minutes at 4° C. The cell pellet is resuspended in phosphate-buffered saline (PBS) solution containing […], the purpose of which is to lyze the red blood cells. The suspension is centrifuged at 1000 rpm and the cells are then resuspended in PBS. The washing operation is performed twice. The final resuspension is performed in whole culture medium, and the cells are counted and distributed into six-well dishes at a density of 40 000 cells/ml. Four hours later, the adhering cells are washed vigorously with PBS in order to remove the cells that might remain attached to the adhering cells or to the culture dish.
The conversion was obtained with a dose of 1 nM, the photograph having been taken 36 hours after the start of action of the product. The test product is that of example 9. The appearance of cellular extensions is observed, which is one of the main characteristics of activated dendritic cells.

[6] = tested on: TS/A (H-2^d) cells; assay: Cytotoxicity on TS/A mouse mammary adenocarcinoma cells in culture; type: cell-based
Procedure: The mouse tumoral line TS/A(H-2^d) is a cell line of a spontaneous mammary adenocarcinoma of syngenic mice of BALB/c mice. They are cultured in mycoplasm-free controlled RPMI 1640 medium supplemented with endotoxin-free controlled fetal calf serum (Girco-Brio, 2 mM of glutamine, 100 U/ml of penicillin, 50 μg/ml of streptomycin, essential amino acids and sodium pyruvate.
The cytotoxicity appears for doses of 50 μM.

[7] = tested on: U-937 human myeloid leukemia cells; assay: Dendritogenesis on U-937 human myeloid leukemia cells; type: cell-based; details: 1 nM
Text: 2) On U-937 Human Myeloid Leukemia Cells

Compound: CC(C)CCC[C@@H](C)[C@H]1CC[C@H]2[C@@H]3C[C@@H](NCCc4c[nH]cn4)[C@@]4(O)C[C@@H](O)CC[C@]4(C)[C@H]3CC[C@]12C [Example 9, cholestane-3β,5α-diol-6β-N-[2-ethylamino(1H-imidazol-4-yl)]]
- tumor growth relative to the control mice ([1]; 8.5 ng/g of mouse, third day): slowing-down effect
- tumor growth relative to the control mice ([1]; 1.7 μg/g of mouse, third day): no tumor is detectable
- tumor growth relative to the control mice, administration remote from the tumor ([1]; 1.7 μg/g of mouse, intradermal, controlateral position, third day): slowing-down of the tumoral growth
- peripheral lymphoid system, activation of the immune system ([1]; 1.7 μg/g, whether or not a tumor has been implanted): hyperplasia of the peripheral lymphoid system is observed
- necrosis in the area of injection (anatomopathology) ([1]; intradermal injection): no trace of necrosis is observable
- induction of vacuole production in U937 cells (electron microscopy) [2]: numerous intracytoplasmic vacuoles have appeared
- induction of vacuole production in A549 cells ([3]; 100 nM, 12 hours): massive production of cytoplasmic vacuoles
- dose dependence of the vacuole effect ([3]; A549 cells): dose-dependent
- time after the treatment at which the vacuole effect appears ([3]; A549 cells): six
- time after the treatment at which the vacuole effect reaches a maximum ([3]; A549 cells): 12 h
- electron microscopy of treated A549 cells ([3]; FIG. 11.2): numerous vacuoles and mitochondria are also observed in the cytoplasm
- reversibility of the vacuole effect ([3]; growth medium replaced with fresh medium): reversible
- stimulation of the T lymphocyte proliferation (factor) [4]: 5
- morphological changes on the mouse monocytes, conversion into dendritic cells [5]: conversion resulting in dendritic cells
- toxicity on TS/A cells ([6]; doses of 5 nM and 1 μM, irrespective of the incubation time): no toxicity is observed
- dose at which cytotoxicity on TS/A appears ([6]; in vitro): 50 µM
- formation of rosettes (aggregate of entangled cells) ([7]; after treatment for 5 days): formation of a large number of rosettes
- size of the dendrites ([7]; after treatment for 5 days): up to 100 μm
- induction of differentiation of the U-937 cells into dendritic cells ([7]; treatment for 2 days, after 10 ng/ml PMA): appearance of dendritic cells
